Source: PubChem BioAssay AID1918934 (Molecular Pharmacology Branch, DTP, NCI, 2023)
Where “and” joins values, the source holds several entries; their conditions need not be identical. Equal entries are not always repeated.

Tested on: 292921-168-R-J2-PDC complex spheroid viability
Experiment: Anticancer human tumor 292921-168-R-J2-PDC patient-derived pancreatic carcinoma cell line growth inhibition
Settings: for viability, T/C: stronger effect = lower value; for IC50: curve of compound
Text: Multicellular complex tumor spheroid response to LSD1 Inhibitor Iadademstat in combination with a variety of drugs and investigational agents in selected tumor cell lines
The current study was undertaken to assess response to LSD1 inhibitors in combination with standard-of-care drugs and investigational agents in solid tumor complex spheroid models as well as in the K-562 leukemia. Complex spheroids include a stromal component modeled by human endothelial cells (HUVEC) and fibroblasts modeled by human mesenchymal stem cells (MSCs). The concentration ranges selected for each drug and investigational agent were based upon clinically achievable concentrations if the clinical Cmax of the agent was known.
Compounds. The drugs and investigational agents used in this study are listed on Table 1. All of the agents used, including staurosporine (NSC755774) and gemcitabine (NSC613327), were obtained from the Developmental Therapeutics Program, NCI. FDA-approved anticancer drugs are available from the NCI at http://dtp.nci.nih.gov/branches/dscb/oncology_drugset_explanation.html. Drugs and investigational agents were >95% pure by proton nuclear magnetic resonance (NMR) and liquid chromatography/mass spectrometry (LC/MS). Stock solutions were prepared at 400x in DMSO, stored at -70 degrees C, and diluted in fresh medium prior to their use. The final concentration of DMSO in cell culture wells never exceeded 0.25% (v/v). The FDA-approved anticancer drug set is available from the Developmental Therapeutics Program at https://dtp.cancer.gov/organization/dscb/obtaining/available_plates.htm. All drugs and investigational agents were tested over a range starting from a high concentration at or near the clinical Cmax and decreasing in half-log increments. If the clinical Cmax for an agent had not been determined, the highest concentration tested was 10 microM.
Cell Lines. The patient-derived cancer cell (PDC) lines: 292921-168-R-J2-PDC, K24384-001-R-PDC, and 521955-158-R2-J5-PDC pancreatic carcinomas, 556581-035-R-J1 ovarian carcinoma, 324938-238-R-J1-PDC, 855422-203-R-J1-PDC and 883617-216-R-J1-PDC urothelial bladder carcinomas, 743489-274-T-PDC renal cell carcinoma, 138582-R-J1 Merkel cell tumor, K60290-347-R-J1 and K57222-313-R-J1-PDC glioblastomas, 653999-131-R-J2-PDC, LG0703-F948-PDC, and 349418-098-R-PDC non-small cell lung carcinomas, 885512-296-R-J2-PDC, 171881-019-R-J1-PDC breast carcinomas and 186277-243-T-J2-PDC and 233499-124-R-J2-PDC colon carcinomas were obtained from the NCI Patient-Derived Models Repository (PDMR, https://pdmr.cancer.gov). The established cell lines NCI/ADR-RES (RRID:CVCL_14520 and OVCAR-5 (RRID:CVCL_1628) ovarian carcinomas, 786-O (RRID:CVCL_1051) and A498 (RRID:CVCL_A498) renal cell carcinoma, NCI-H211 (ATCC, cat. CRL-5824; RRID:CVCL_1529), NCI-H196 (ATCC, cat. CRL-5823, RRID:CVCL_1509), SW 1271 (ATCC, cat. CRL-2177, RRID:CVCL_1716) and NCI-H1876 (ATCC, cat. CRL-5902, RRID:CVCL_1503) small cell lung carcinomas, MDA-MB-231 (RRID:CVCL_0062) and MDA-MB-468 (RRID:CVCL_0419)breast carcinomas (10-12). Pooled donor human umbilical vein endothelial cells (HUVEC, Lonza, cat. CC-2519) and human mesenchymal stem cells (hMSC, Lonza, cat. PT-2501) were purchased from Lonza (Walkersville, MD).
Cell Culture. All cells were maintained in an incubator at 37 degrees C and 5% CO2 with 95% humidity. The PDC lines were cultured according to standard operating procedures established by the NCI PDMR (https://pdmr.cancer.gov). Briefly all PDCs were thawed and cultured in Matrigel-coated flasks prepared with a working solution of 1X Ham's F-12 nutrient mix, without supplementation (Invitrogen, Waltham, MA, cat. 11765054), 100 U/mL penicillin-streptomycin (Invitrogen, cat. 15140122), and 2.5% Matrigel (Corning Inc., Corning, NY, cat. 354248) for the first three passages. […]
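Further: seven day compound exposure before luminescent viability read.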
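Wherever viability, T/C is given: 100% = DMSO vehicle control wells.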

SMILES	viability, T/C (compound 0.000316 µM)	viability, T/C (compound 0.001 µM)	viability, T/C (compound 0.00316 µM)	viability, T/C (compound 0.01 µM)	viability, T/C (compound 0.0316 µM)	viability, T/C (compound 0.1 µM)	IC50	viability, T/C (compound 0.316 µM)	viability, T/C (compound 1 µM)	viability, T/C (compound 3.16 µM)	viability, T/C (compound 10 µM)	viability, T/C (compound 0.00949 µM)	viability, T/C (compound 0.03 µM)	viability, T/C (compound 0.0949 µM)	viability, T/C (compound 0.3 µM)	viability, T/C (compound 0.949 µM)	viability, T/C (compound 3 µM)	viability, T/C (compound 0.000949 µM)	viability, T/C (compound 0.003 µM)
CC(C)CC(NC(=O)C(Cc1ccccc1)NC(=O)c1cnccn1)B(O)O (configuration not stated)	18.8% and 20.7%	0.9% and 1.54%	0.34% and 1.04%	0.42% and 0.8%	0.19% and 0.21%	0.21%	< 0.000316 µM	–	–	–	–	–	–	–	–	–	–	–	–
CC(C)CC(NC(=O)CNC(=O)c1cc(Cl)ccc1Cl)B1OC(=O)CC(CC(=O)O)(C(=O)O)O1 (configuration not stated)	99.1% and 96.2%	113% and 105%	87.8% and 85.7%	17% and 20.2%	6.27% and 3.15%	0.79% and 0.83%	0.00586 µM and 0.00594 µM	–	–	–	–	–	–	–	–	–	–	–	–
CC(C)c1c(-c2ccccc2)nc2c(C#N)c[nH]n2c1=O	–	–	–	–	100% and 101%	97.6% and 101%	> 10 µM	102% and 93.6%	106% and 98.2%	102% and 105%	65.2% and 70.4%	–	–	–	–	–	–	–	–
CC1(C)CCC(CN2CCN(c3ccc(C(=O)NS(=O)(=O)c4ccc(NCC5CCOCC5)c([N+](=O)[O-])c4)c(Oc4cnc5[nH]ccc5c4)c3)CC2)=C(c2ccc(Cl)cc2)C1	–	–	–	–	105% and 108%	114%	2.03 µM and 1.98 µM	110% and 108%	98.1% and 94.9%	20% and 19.2%	0.32% and 0.33%	–	–	–	–	–	–	–	–
CC1COCCN1c1cc(-c2ccnn2C)c2ccnc(-c3ccn[nH]3)c2n1 (configuration not stated)	–	–	15.4% and 15.1%	12.8% and 16.4%	12.4% and 13%	16.3% and 14.8%	< 0.00316 µM	17.2% and 17.7%	17.8% and 18.7%	–	–	–	–	–	–	–	–	–	–
CC1COCCN1c1cc(C2(S(C)(=N)=O)CC2)nc(-c2ccnc3[nH]ccc23)n1 (configuration not stated)	–	–	–	–	104% and 96.3%	102% and 99.3%	0.602 µM and 0.673 µM	73.6% and 77.7%	31.6% and 35.1%	13.4% and 16.8%	12.6% and 11.3%	–	–	–	–	–	–	–	–
CCN(c1cc(-c2ccc(CN3CCOCC3)cc2)cc(C(=O)NCc2c(C)cc(C)[nH]c2=O)c1C)C1CCOCC1	–	–	–	–	–	–	1.35 µM and 1.46 µM	–	–	–	–	100% and 99.5%	115% and 103%	99%	85.1% and 80.7%	63.7% and 67.6%	22.2% and 24.3%	–	–
CC[C@@]1(O)C(=O)OCc2c1cc1n(c2=O)Cc2cc3c(CN(C)C)c(O)ccc3nc2-1	96.8% and 95.3%	79.3% and 94.1%	54.4% and 57.1%	21.4% and 21.1%	9.12% and 10.3%	4.35% and 3.55%	0.00345 µM and 0.00411 µM	–	–	–	–	–	–	–	–	–	–	–	–
CCc1c2c(nc3ccc(O)cc13)-c1cc3c(c(=O)n1C2)COC(=O)[C@]3(O)CC	–	–	–	–	–	–	< 0.000949 µM	–	–	–	–	1.25% and 1.31%	0.84% and 1.16%	1.07% and 1.04%	0.92% and 1.24%	–	–	5.38% and 4.72%	3.5% and 2.75%
COc1cc(C2c3cc4c(cc3C(OC3OC5COC(C)OC5C(O)C3O)C3COC(=O)C23)OCO4)cc(OC)c1O (configuration not stated)	–	–	–	–	–	–	0.0397 µM and 0.0527 µM	–	–	–	–	91.1% and 92%	57.8% and 69.4%	26.8% and 28.4%	17.8% and 16.7%	8.57% and 7.24%	5.06% and 4.06%	–	–
COc1cc(Nc2ncc3c(n2)-c2ccc(Cl)cc2C(c2c(F)cccc2OC)=NC3)ccc1C(=O)O	–	–	33% and 38.1%	40.7% and 42.1%	36% and 39.1%	30.2% and 37.9%	< 0.00316 µM	27.7% and 29.6%	16.1% and 17.5%	–	–	–	–	–	–	–	–	–	–
COc1ccc([C@@H](O)c2cc(-c3ncnc4cc(N5CCOCC5)ccc34)c(F)cc2Cl)nn1	–	–	–	–	101% and 104%	95.7% and 82.2%	0.59 µM and 0.738 µM	61.2% and 71.4%	37.6% and 42.1%	24.7% and 24.6%	11.6% and 13.1%	–	–	–	–	–	–	–	–
Cn1ncnc1C1c2n[nH]c(=O)c3cc(F)cc(c23)NC1c1ccc(F)cc1 (configuration not stated)	86.8% and 103%	102% and 101%	94.5% and 96.3%	93.9% and 94.8%	85.9% and 88.3%	82.3% and 83.5%	> 0.1 µM	–	–	–	–	–	–	–	–	–	–	–	–
NC1CC1c1ccc(-c2cccc(O)c2)cc1 (configuration not stated)	–	–	–	–	–	80.2%	–	71.4% [middle of 24 runs]	67.6% [middle of 25 runs]	64.6% [middle of 25 runs]	54.7% [middle of 25 runs]	–	–	–	–	–	–	–	–
NC1CCC(NC2CC2c2ccccc2)CC1 (configuration not stated)	–	–	–	–	–	65.7% [middle of 25 runs]	–	56.6% and 63.5%	58% [middle of 25 runs]	57.4% [middle of 25 runs]	54.2% [middle of 23 runs]	–	–	–	–	–	–	–	–
NS(=O)(=O)OCC1CC(n2ccc3c(NC4CCc5ccccc54)ncnc32)CC1O (configuration not stated)	–	–	–	–	–	–	0.0164 µM and 0.0181 µM	–	–	–	–	81.2% and 90.5%	15.7% and 18%	2.87% and 3.52%	1.94% and 1.72%	1.98% and 1.67%	1.78% and 1.54%	–	–
Nc1ccccc1NC(=O)c1ccc(CNC(=O)OCc2cccnc2)cc1	–	–	–	–	–	–	0.0249 µM and 0.0283 µM	–	–	–	–	67.9% and 65.7%	45.2% and 49.2%	31% and 31.7%	17.2% and 19.8%	4.09% and 5.39%	0.29% and 0.27%	–	–
Nc1ccn(C2OC(CO)C(O)C2(F)F)c(=O)n1 (configuration not stated)	–	–	–	–	–	–	< 0.000949 µM	–	–	–	–	6.12% and 5.67%	5.81% and 5.6%	8.04% and 6.06%	6.84% and 5.56%	–	–	39.2% and 33.5%	12% and 10.8%
Nc1ncn(C2CC(O)C(CO)O2)c(=O)n1 (configuration not stated)	–	–	98.6% and 89%	96.7% and 91.5%	71.8% and 82.9%	69.7% and 73.9%	> 1 µM	63.4% and 63.6%	55.4% and 58.2%	–	–	–	–	–	–	–	–	–	–
Nc1ncn(C2CC(O)C(CO)S2)c(=O)n1 (configuration not stated)	–	–	–	–	–	–	0.0725 µM and 0.0837 µM	–	–	–	–	84% and 88.4%	72.4% and 80.4%	43.5% and 45.3%	13.5% and 13.6%	–	–	96.5% and 102%	104% and 92.4%
O=C(C=Cc1cccc(S(=O)(=O)Nc2ccccc2)c1)NO	–	–	–	–	–	–	< 0.00949 µM and 0.0128 µM	–	–	–	–	47.6% and 52.8%	41% and 44.1%	28.8% and 32.3%	18.1% and 25.8%	0.52% and 1.26%	0.15%	–	–
O=C(C=Cn1cnc(-c2cc(C(F)(F)F)cc(C(F)(F)F)c2)n1)NNc1cnccn1	–	–	59.5% and 55.2%	55.9% and 55%	30.4% and 29.4%	14.4% and 14.1%	0.0124 µM and 0.0114 µM	8.05% and 8.45%	5.62% and 5.3%	–	–	–	–	–	–	–	–	–	–
O=C(c1cc(Cc2n[nH]c(=O)c3ccccc23)ccc1F)N1CCN(C(=O)C2CC2)CC1	–	–	–	–	106% and 100%	98.8% and 100%	9.28 µM and 7.49 µM	98.5% and 99.6%	95.4% and 85.9%	74.9% and 73%	48.1% and 42.4%	–	–	–	–	–	–	–	–
